This is an account of results in patent publication US9157077B2, “Aminopyrimidine kinase inhibitors” (Jasco Pharmaceuticals, LLC, priority 2009, dated 2015).

One series concerns PC-3 cells. As to the kind of experiment: Cell proliferation study, inhibition of PC-3 cells (MTS). In kind it is cell-based. The note with it: Homo sapiens, 72 hours, read-out: Inhibition Rate %. As to the method:
Inhibition of PC-3 Cells:
(§1) • Cells: PC-3 cells, ATCC Passage unknown, Mycoplasma free. • Medium: DMEM Medium (GIBCO Cat#11995073) supplemented with 10% fetal bovine serum (Hyclone Cat#SH30396.03). • Seeding: 3,000 cells/well (100 μL) into 96-well plates, incubated overnight at 37° C. in a humidified 5% CO2 atmosphere. • Treatment: Test compounds were first diluted 333-fold in the medium. Fifty microliters (50 μL) of diluted compounds were added into each well (i.e., another 3-fold dilution). The final concentration of test compounds was 10 μM. The cells were incubated for 72 hours after addition of the test compounds. • MTS: Added 20 μL of MTS solution (Promega Cat #G5430) into each well and incubated for 4 hours. • Calculation: % of inhibition+(AVE zero ctrl−AVE compound)/AVE zero ctrl*100.

The next series concerns OVCAR-3 cells. As to the kind of experiment: Cell proliferation study, inhibition of OVCAR-3 cells (MTS). The format is cell-based. The note with it: Homo sapiens, 72 hours, read-out: Inhibition Rate %. As to the method: Inhibition of OVCAR-3 Cells
as §1, with “OVCAR-3” for “PC-3”, “4,” for “unknown,”, “RPMI-1640” for “DMEM”, “Cat#22400121)” for “Cat#11995073)”, “2,000” for “3,000”

Another series deals with LNCaP cells. As to the kind of experiment: Cell proliferation study, inhibition of LNCaP cells (MTS). The format is cell-based. As to conditions: Homo sapiens, 72 hours, read-out: Inhibition Rate %. The protocol:
Inhibition of LNCaP Cells
as §1, with “LNCaP,” for “PC-3 cells,”, “RPMI-1640” for “DMEM”, “Cat#22400121)” for “Cat#11995073)”

The next series concerns Jurkat cells. Description: Cell proliferation study, inhibition of Jurkat cells (MTS). The format is cell-based. The note with it: Homo sapiens, 72 hours, read-out: Inhibition Rate %. The protocol: Inhibition of Jurkat Cells
as §1, with “Jurkat” for “PC-3”, “RPMI-1640” for “DMEM”, “Cat#22400121)” for “Cat#11995073)”, “serum(Hyclone” for “serum (Hyclone”, “5,000” for “3,000”

The test system of another series is MDA-MB-468 cells. As to the kind of experiment: Cell proliferation study, inhibition of MDA-MB-468 cells (MTS). In kind it is cell-based. As to conditions: Homo sapiens, 72 hours, read-out: Inhibition Rate %. As to the method:
Inhibition of MDA-MB-468 Cells
as §1, with “MDA-MB-468” for “PC-3”, “RPMI-1640” for “DMEM”, “Cat#22400121)” for “Cat#11995073)”, “2,000” for “3,000”

Another series deals with HCT116 cells. As to the kind of experiment: Cell proliferation study, inhibition of HCT116 cells (MTS). As to conditions: Homo sapiens, 72 hours, read-out: Inhibition Rate %. The format is cell-based. The protocol: Inhibition of HCT116 Cells
as §1, with “• Cells: HCT116 cells, ATCC” for “• Cells: PC-3 cells, ATCC”, “• Seeding: 750 cells/well (100” for “• Seeding: 3,000 cells/well (100”, “hours. • Measurement: Absorbance at 490 nm using MD Spectramax Plus 384 spectrophotometer. • Calculation: %” for “hours. • Calculation: %”

Series [1] addresses Enzyme (kinases of Table 30) (Homo sapiens, UniProt P11309). As to the kind of experiment: IC50 of Compound (nM) (ATP present at Km of enzyme), Table 30. The format is biochemical. As to conditions: Pim-1(h), ATP present at Km of enzyme; read-out: IC50 of Compound, Pim-1(h).
The target of series [2] is T1, Enzyme (kinases of Table 30) (Homo sapiens, UniProt P68400).
T1 construct: IC50 of Compound, CK2(h); other: CK2(h), ATP present at Km of enzyme
T1 sequence (P68400 whole entry): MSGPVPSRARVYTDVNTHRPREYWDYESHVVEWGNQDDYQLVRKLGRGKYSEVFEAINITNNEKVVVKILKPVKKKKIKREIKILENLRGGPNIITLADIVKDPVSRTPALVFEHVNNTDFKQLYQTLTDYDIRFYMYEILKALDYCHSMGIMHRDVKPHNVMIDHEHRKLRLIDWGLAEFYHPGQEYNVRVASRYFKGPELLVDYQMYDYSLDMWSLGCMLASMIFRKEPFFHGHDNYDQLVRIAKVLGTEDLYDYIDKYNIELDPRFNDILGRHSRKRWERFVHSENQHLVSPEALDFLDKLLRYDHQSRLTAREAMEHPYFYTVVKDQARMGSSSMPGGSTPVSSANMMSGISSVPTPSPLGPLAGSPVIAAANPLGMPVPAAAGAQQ
The series is described as above. As to conditions: CK2(h), ATP present at Km of enzyme. In kind it is biochemical.

In series [3] the target is T2, Enzyme (kinases of Table 30) (Homo sapiens, UniProt P78368).
T2 construct: IC50 of Compound, CK1γ2(h); other: CK1γ2(h), ATP present at Km of enzyme
T2 sequence (P78368 whole entry): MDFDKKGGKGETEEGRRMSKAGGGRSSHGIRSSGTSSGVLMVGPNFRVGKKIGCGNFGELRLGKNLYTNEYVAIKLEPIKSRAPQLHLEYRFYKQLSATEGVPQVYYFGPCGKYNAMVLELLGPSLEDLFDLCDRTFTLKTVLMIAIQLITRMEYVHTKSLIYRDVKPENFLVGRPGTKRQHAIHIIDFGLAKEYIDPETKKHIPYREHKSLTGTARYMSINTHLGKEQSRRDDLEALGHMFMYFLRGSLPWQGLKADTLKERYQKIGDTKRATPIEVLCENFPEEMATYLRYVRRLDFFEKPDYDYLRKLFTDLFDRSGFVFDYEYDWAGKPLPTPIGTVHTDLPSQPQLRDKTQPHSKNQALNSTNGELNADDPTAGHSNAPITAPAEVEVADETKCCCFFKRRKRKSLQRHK
The series is described as above. The format is biochemical. The note with it: CK1γ2(h), ATP present at Km of enzyme.

Series [4] addresses Enzyme (kinases of Table 30) (Homo sapiens, UniProt Q86V86). The series is described as above. The note with it: Pim-3(h), ATP present at Km of enzyme; read-out: IC50 of Compound, Pim-3(h). In kind it is biochemical.
The target of series [5] is Enzyme (kinases of Table 30) (Homo sapiens, UniProt Q9P1W9). The description is as above. The format is biochemical. As to conditions: Pim-2(h), ATP present at Km of enzyme; read-out: IC50 of Compound, Pim-2(h).
Enzyme (kinases of Table 30) (Homo sapiens, UniProt Q9P1W9), sequence (Q9P1W9 whole entry): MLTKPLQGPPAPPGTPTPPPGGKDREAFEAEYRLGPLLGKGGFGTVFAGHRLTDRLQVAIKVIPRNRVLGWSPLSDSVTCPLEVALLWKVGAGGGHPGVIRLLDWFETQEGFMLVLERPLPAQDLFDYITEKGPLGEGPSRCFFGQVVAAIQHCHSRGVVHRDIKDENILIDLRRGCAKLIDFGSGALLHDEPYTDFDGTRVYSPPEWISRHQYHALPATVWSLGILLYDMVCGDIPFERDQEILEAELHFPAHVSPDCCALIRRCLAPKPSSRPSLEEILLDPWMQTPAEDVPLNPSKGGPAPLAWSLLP
Series [6] can be described thus: Hepatic microsomal stability, rat. In kind it is in vitro ADME, rat (Sprague-Dawley). As to the method:
(§2) Hepatic microsomal assays were performed with 4981, 4985, 4991 and 4999 in human and rat (Sprague-Dawley). Protein concentrations of 0.4 (human) and 0.2 mg/mL (rat) with an NADPH regenerating cofactor system (2.6 mM NADP+, 6.6 mM glucose-6-phosphate, 0.8 U/mL glucose-6-phosphate dehydrogenase, and 6.6 mM magnesium chloride) were used. A 100 μM 20% DMSO/80% acetonitrile working stock of each of the compounds was diluted 100 fold resulting in 1 μM compound/1% final organic reaction concentrations. Time points were removed at 0 and 60 minutes. At each time point, 100 μL of the incubation suspension was added to 200 μL of acetonitrile containing internal standard (tolbutamide), followed by centrifugation at 3,220 rcf for 10 minutes. Two hundred (200)μL of the resulting supernatants were removed, dried under nitrogen and reconstituted in 100 μL of 2 mM ammonium acetate, 0.1% formic acid in 50% methanol prior to analysis by LC/MS/MS. Testosterone and dexamethasone were used as reference compounds.

Series [7] can be described thus: Hepatic microsomal stability, human. The format is in vitro ADME. The protocol:
as §2

For series [8] the following is noted: PAMPA, 5 h, 10 μM, pH 7.4. Background: PAMPA measures passive passage across an artificial lipid membrane.
Method: The target concentration in the assay was 10 μM, prepared by diluting (1000-fold) the 10 mM stock solutions in DMSO into PBS, pH 7.4. The final DMSO concentration was 0.1%. The 10 μM solutions were added, 300 μL, to wells in the donor plate. The receiver plate, which contained 200 μL of PBS, pH 7.4 per well, was placed in the donor plate and the assembly was incubated for 5 hours at ambient temperature. At the end of the incubation period the plates were separated and the compound concentrations in each solution were determined by LC/MS/MS. The assay was performed in triplicate.
Where: • C0 is the initial concentration in the donor well (μM) • CD(t) is the concentration in the donor well after incubation (μM) • CA(t) is the concentration in the acceptor well after incubation (μM) • VD is the volume in the donor well (0.3 mL) • VA is the volume in the acceptor well (0.2 mL) • CE is (CD(t)VD+CA(t)VA)/(VD+VA) • A is the filter area (0.3 cm2) • t is the incubation time (18,000 s).

The term inhibition denotes the relative decrease from the control value, in per cent. The term IC50 denotes the concentration that inhibits the measured activity by half.

Enzyme (kinases of Table 30) (Homo sapiens, UniProt P11309), sequence (P11309 whole entry): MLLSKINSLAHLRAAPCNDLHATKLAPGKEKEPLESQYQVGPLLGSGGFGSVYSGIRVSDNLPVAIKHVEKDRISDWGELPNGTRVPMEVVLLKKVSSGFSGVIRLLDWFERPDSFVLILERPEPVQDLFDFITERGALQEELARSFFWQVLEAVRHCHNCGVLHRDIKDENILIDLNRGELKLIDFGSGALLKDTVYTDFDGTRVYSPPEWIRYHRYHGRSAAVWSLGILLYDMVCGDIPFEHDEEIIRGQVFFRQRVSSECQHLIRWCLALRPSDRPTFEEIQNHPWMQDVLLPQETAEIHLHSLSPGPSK

Take `Nc1ccn([C@@H]2O[C@H](CO)[C@@H](O)C2(F)F)c(=O)n1` [Gemcitabine, gemcitabine]: the inhibition at 1.2 µM in the series on PC-3 cells (positive control 1.2 μM) is 6.5%; with OVCAR-3 cells (positive control 1.2 μM), 18.2%; in the series with LNCaP cells (positive control 1.2 μM) it was 14.5%; in the series on Jurkat cells (positive control 1.2 μM), 17.4%; in the series with MDA-MB-468 cells (positive control 1.2 μM), 16.4%; in the series on HCT116 cells (HCT-116, positive control 1.2 μM), 50.1%. For the same molecule, the inhibition at 3.7 µM amounted to 6.7% in the series with PC-3 cells (positive control 3.7 μM); 25% in the series with OVCAR-3 cells (positive control 3.7 μM); 60.9% in the series with LNCaP cells (positive control 3.7 μM); 63.9% in the series with Jurkat cells (positive control 3.7 μM); 31.2% with MDA-MB-468 cells (positive control 3.7 μM); 79.3% with HCT116 cells (HCT-116, positive control 3.7 μM). The inhibition at 11.1 µM in the series with PC-3 cells (positive control 11.1 μM) was 20.9%; in the series with OVCAR-3 cells (positive control 11.1 μM), 31.5%; in the series with LNCaP cells (positive control 11.1 μM), 90.2%; with Jurkat cells (positive control 11.1 μM), 84.7%; in the series on MDA-MB-468 cells (positive control 11.1 μM), 80.7%; with HCT116 cells (HCT-116, positive control 11.1 μM), 85.6%. Besides, the inhibition at 33.3 µM in the series on PC-3 cells (positive control 33.3 μM) came out at 47.4%; in the series with OVCAR-3 cells (positive control 33.3 μM), 40.8%; in the series on LNCaP cells (positive control 33.3 μM) it was 92.9%; in the series on Jurkat cells (positive control 33.3 μM) it was 105%; in the series on MDA-MB-468 cells (positive control 33.3 μM), 91.7%; in the series on HCT116 cells (HCT-116, positive control 33.3 μM) it was 85.6%. The inhibition at 100 µM came to 55.7% in the series on PC-3 cells (positive control 100 μM); 85.1% in the series with OVCAR-3 cells (positive control 100 μM); 90.7% in the series with LNCaP cells (positive control 100 μM); 106% in the series with Jurkat cells (positive control 100 μM); 88.8% in the series with MDA-MB-468 cells (positive control 100 μM); 85.4% with HCT116 cells (HCT-116, positive control 100 μM). In addition, the inhibition at 300 µM with PC-3 cells (positive control 300 μM) was 79.5%; with OVCAR-3 cells (positive control 300 μM) it was 87%; in the series on LNCaP cells (positive control 300 μM), 90.1%; in the series on Jurkat cells (positive control 300 μM) it was 104%; in the series on MDA-MB-468 cells (positive control 300 μM) it was 94.9%; in the series on HCT116 cells (HCT-116, positive control 300 μM), 87.6%.
For the molecule `Nc1cccc2c1CCN(c1nccc(/C=C3\SC(=O)NC3=O)n1)C2` [compound 120], the IC50 was found to be 170 nM in series [1]; 214 nM in series [2]; 676 nM in series [3]; 271 nM in series [4]; 225 nM in [5].
Regarding `C[C@@H]1C[C@H]2[C@@H]3CCC4=CC(=O)C=C[C@]4(C)[C@@]3(F)[C@@H](O)C[C@]2(C)[C@@]1(O)C(=O)CO` [Dexamethasone], the “% remaining after incubation, Rat Microsomes” value in series [6] (Sprague-Dawley, rat, microsomes, 1 h, 1 μM) was determined as 91%. Further, the “% remaining after incubation, Human Microsomes” value in series [7] (human, microsomes, 1 h, 1 μM) was found to be 85%. Besides, in series [8], the “Mass Retention R” value was 9%.
Turning to `COc1cccc2ccc(CNCC3CCN(c4nccc(/C=C5\SC(=O)NC5=O)n4)CC3)nc12` [compound 189], the half-inhibitory concentration (IC50) in [1] came to 4 nM; in series [2], 364 nM; in series [3], 164 nM; in [4], 4 nM; in series [5], 9 nM.
In series [3], `O=C1NC(=O)/C(=C/c2ccnc(N3CCC(c4c[nH]c5ccccc45)CC3)n2)S1` [compound 94] gave an IC50 of 38 nM.
The same measure, in the same setting: the value for `O=C1NC(=O)/C(=C/c2ccnc(N3CCC(c4nc(-c5ccncc5)no4)CC3)n2)S1` [compound 86] was 86 nM.
Take `C[C@]12CC[C@H]3[C@@H](CCC4=CC(=O)CC[C@@]43C)[C@@H]1CC[C@@H]2O` [Testosterone]: the “% remaining after incubation, Rat Microsomes” value in [6] (1 μM compound, 0.2 mg/mL protein, NADPH regenerating system, 60 minutes) was 0.6%. For the same molecule, the “% remaining after incubation, Human Microsomes” value in series [7] (1 μM compound, 0.4 mg/mL protein, NADPH regenerating system, 60 minutes) came out at 42%.
